Laboratory results: patent US20220030866A1, “CONJUGATES OF AUXIN ANALOGS” (The State of Israel, Ministry of Agriculture & Rural …, priority 2019, published 2022)

Tests used:
[1] = test system: avocado rootstock cuttings; test: rooting of avocado rootstock cuttings; type: in vivo; conditions: vc51 rootstock, IBA with compound
Outline: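 Green cuttings of avocado rootstock (including hard-to-root VC801) were treated with auxin conjugates in the presence of IBA and scored for rooting.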

[2] = 4-CPA levels in Eucalyptus grandis cuttings by LC-MS (translocation, release from conjugates); type: in vivo
Method: E. grandis cuttings were harvested at time 0, 1, 6 and 24 hours after the indicated treatments. The cutting foliage and basal ends (approximately 2-3 cm of the base) were harvested separately using a sharp pruning shear, rinsed well under a tap water stream, wiped with a paper towel and frozen in liquid nitrogen. Then, each sample was grinded well while still frozen, using an IKA lab mill. For the analysis, 3-6 technical replicates, weight 190-240 mg, were taken from each sample into fresh 2 ml Eppendorf™ tubes. Auxins were extracted in 1 ml of cold 79% isopropanol, 20% methanol and 1% acetic acid solution containing 20 ng of […] IBA and IAA as internal standards. The tubes were vortexed for 1 hr at 4° C. and then centrifuged at 14,000 RPM for 15 minutes. The supernatants were transferred to fresh 2 ml Eppendorf™ tubes. Two more extraction cycles were performed using 0.5 ml of extraction solvent without the internal standards. The tubes containing the collected supernatants were placed in a SpeedVac™ centrifuge for solvent evaporation under room temperature. The pellets were dissolved in pre-chilled 200 μl of 50% methanol, centrifuged, and the supernatant was filtered through […] PDFV syringe filters 13 mm into fresh 2 ml tubes. The ready extractions were kept under −20° C. till analyzed.
LC-MS analyses were conducted using UPLC-Triple Quadrupole-MS device (Waters Xevo TQ MS). Separation was performed on Waters Acquity™ UPLC BEH C18 1.7 μm 2.1×100 mm column with a VanGuard™ precolumn (BEH C18 1.7 μm 2.1×5 mm). Chromatographic and MS parameters were as follows: the mobile phase consisted of water (phase A) and acetonitrile (phase B), both containing 0.1% formic acid in the gradient elution mode. The solvent gradient program was as follows: […]
The flow rate was 0.3 ml/minute, and the column temperature was kept at 35° C. The analyses were performed using the ESI source in negative ion mode with the following settings: capillary voltage 3.1 kV, cone voltage 30 V, desolvation temperature 400° C., desolvation gas flow 565 liters/hour, source temperature 140° C. Quantitation was performed using MRM acquisition by monitoring the 185/127, 185/141, RT=5.77, dwell time of 161 msec for each transition. Calibration curve was used to calculate the concentration of 4-CPA. Acquisition of LC-MS data was performed under MassLynx™ V4.1 software (Waters).
In order to determine whether trend observed in Arabidopsis occurs also in eucalyptus cuttings, the 4-CPA translocation directionality was first examined by treating cuttings with 4-CPA (100 μM) either by submergence of the cutting base or by spraying the leaves. At several time points (i.e. 0, 1, 6 and 24 hours), the cutting base (bottom 2 cm) and the leaves were separately extracted (with isopropanol/methanol/acetic acid solution) and 4-CPA levels were determined by HPLC-MS/MS.
In order to evaluate the rate of conjugates hydrolysis, 4-CPA levels were monitored following treatment with Compounds 1s and 1t. Cuttings were treated with IBA alone (by submerging the cutting base), or with IBA and Compound 1s or it by submerging the cutting base and by spraying the leaves with Compound 1s or 1t. Cutting bases (bottom 2 cm) and leaves were separately extracted 6, 24 and 48 hours after treatment and hormones levels were determined by HPLC-MS/MS.

[3] = 100 μM 4-CPA applied to the cutting base

SMILES	roots per cutting of green avocado branches compared with etiolated branches treated with IBA, in words [1]	rooting success rate of green avocado branches, in words ([1]; compared with IBA alone)	4-CPA level locally (leaves) and in the cutting base ([2]; 100 μM 4-CPA applied to leaves by spraying)	4-CPA level in leaves [2, 3]	4-CPA level in the cutting base (local) [2, 3]	time at which 4-CPA levels peaked following application to the leaves ([2]; 100 μM 4-CPA sprayed on leaves)	4-CPA levels throughout the measurements ([2]; treatment with free 4-CPA or with conjugate)
COC(=O)[C@@H](Cc1c[nH]c2ccccc12)NC(=O)COc1ccc(Cl)cc1 [Compound 1s, 4-CPA-D-Trp]	considerably more roots per cutting	considerably enhanced the rooting success rate	–	–	–	–	–
O=C(O)COc1ccc(Cl)cc1 [Compound 4-CPA, 4-chloro-phenoxyacetic acid, reference compound]	–	–	about 150 ng/gram	less than 10 ng/gram	about 275 ng/gram	6 h	250-300 ng/gram
